In article PMC6934184, “Selective DNA-PKcs inhibition extends the therapeutic index of localized radiotherapy and chemotherapy” (The Journal of Clinical Investigation, 2019):

Target: T1, MKNK1 (MNK1) (Homo sapiens, UniProt Q9BUB5)
T1 construct: purchased Thermo Fisher Scientific (Life Technologies) SelectScreen
Assay: SelectScreen Z'LYTE
Format: biochemical
Outline: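 Percent values come from Thermo SelectScreen profiling of NU5455, combining activity and binding assays. CSF1R was run in Z'LYTE format at Km app ATP, and CAMK1 in Adapta format with ATP listed at 10.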

T1 sequence (Q9BUB5 whole entry): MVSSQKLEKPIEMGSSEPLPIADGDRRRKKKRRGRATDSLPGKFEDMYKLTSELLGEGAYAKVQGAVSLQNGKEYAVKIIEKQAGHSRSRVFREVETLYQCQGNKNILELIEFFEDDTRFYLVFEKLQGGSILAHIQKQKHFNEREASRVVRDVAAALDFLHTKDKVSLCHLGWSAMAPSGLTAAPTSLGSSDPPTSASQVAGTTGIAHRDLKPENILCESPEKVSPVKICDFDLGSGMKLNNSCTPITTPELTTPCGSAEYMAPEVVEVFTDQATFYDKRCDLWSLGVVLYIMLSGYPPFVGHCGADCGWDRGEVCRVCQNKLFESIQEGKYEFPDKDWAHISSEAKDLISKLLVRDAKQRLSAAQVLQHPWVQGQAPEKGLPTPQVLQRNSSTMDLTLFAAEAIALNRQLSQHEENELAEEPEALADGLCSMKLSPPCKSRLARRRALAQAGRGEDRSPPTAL

`CN(C(=O)CN1CCOCC1)c1ccc2sc3c(-c4cccc5c(=O)cc(N6CC7CCC(C6)O7)oc45)cccc3c2c1` [NU5455] was tested, and the inhibition at 1 µM was -10.7%.
